# Measurements reported in US6432683B1, “Preparation of 2-aminomuconate from 2-aminophenol by coupled enzymatic dioxygenation and dehydrogenation reactions” (The United States of America as represented by the …, priority 2000, dated 2002).
structure (smiles),measurement,setting,value
"NC(=CC=CC(=O)O)C(=O)O [2-Aminomuconate, 2-aminohexa-2,4-diene-1,6-dioate]",half-life,"buffer, pH 9.5",20 h
same,amount lost on freezing and thawing,pH 8.0 in potassium phosphate buffer,50%
same,decomposition on freezing and thawing,pH 9.5 (Tris-HCl),about 2%
same,amount lost on storage,"solution stored on ice for 50 h, 0.34 mM",30%
